Experimental data: US20230235290A1, “RECOMBINANT CARDIOMYOCYTES AND CARDIOMYOCYTE CELL LINES EXPRESSING HERG” (The Governors of the University of Alberta, priority 2016, published 2023)

What was measured:
hERG = hERG (Homo sapiens, UniProt Q12809); conditions: literature statement; cited from earlier work
hMYO-hERG cells = test: SetuBlue cell viability (cell proliferation) assay, fluorometric, on hMYO-hERG cells; format: cell-based, human
Procedure: (§1) Ninety-six (96) well plate(s) were seeded with hMYO-hERG cells containing approximately 1×10^4 cells/well. The plates were first incubated for 24 hours at 37° C., 5% CO2, followed by incubation for 48 hours at 28° C., 5% CO2. The wells were then treated with compound(s) of interest for 48 hours at standard cell cultural conditions. A negative control medium without cells was included to determine background signal.
(§2) The cells were then assayed for toxicity using a SetuBlue™ Cell Proliferation Assay Kit (Fluorometric) (BioIntersect, Catalog #F6009-2500-A). This kit uses a Blue indicator dye, Resazurin, to measure the metabolic capacity of cells. Resazurin is a non-fluorescent, cell permeable and non-toxic compound. Viable cells efficiently reduce the Blue indicator dye to resorufin, which is highly fluorescent and an indicator of cell viability.
(§3) The SetuBlue cell proliferation assay was performed as follows. The old media was aspirated and replaced with fresh 100 μl medium containing 10% volume of SetuBlue reagent containing the Blue indicator dye. The plates were incubated using standard cultural conditions for 1-4 hrs. The plates were than shaken for 10-20 seconds before recording fluorescence at 530/590 nm in PerkinElmer EnSpire® multimode plate reader. The relative fluorescence unit (“RFU”) value of each control well was subtracted from all RFU value to yield corrected RFU values. The corrected RFU values at 530/590 nm (Y axis, Log10 scale) were plotted against concentration of test compound (X axis). The CC50 value were determined by locating the X-axis value corresponding to one-half the maximum (plateau) RFU value using GraphPad Prism software.

[1] = as above; format: cell-based, human; conditions: human; hMYO-hERG cells, 48 hours treatment, fluorescence 530/590 nm, GraphPad Prism
Procedure: as §1, §2, §3

hERG, sequence (Q12809 whole entry): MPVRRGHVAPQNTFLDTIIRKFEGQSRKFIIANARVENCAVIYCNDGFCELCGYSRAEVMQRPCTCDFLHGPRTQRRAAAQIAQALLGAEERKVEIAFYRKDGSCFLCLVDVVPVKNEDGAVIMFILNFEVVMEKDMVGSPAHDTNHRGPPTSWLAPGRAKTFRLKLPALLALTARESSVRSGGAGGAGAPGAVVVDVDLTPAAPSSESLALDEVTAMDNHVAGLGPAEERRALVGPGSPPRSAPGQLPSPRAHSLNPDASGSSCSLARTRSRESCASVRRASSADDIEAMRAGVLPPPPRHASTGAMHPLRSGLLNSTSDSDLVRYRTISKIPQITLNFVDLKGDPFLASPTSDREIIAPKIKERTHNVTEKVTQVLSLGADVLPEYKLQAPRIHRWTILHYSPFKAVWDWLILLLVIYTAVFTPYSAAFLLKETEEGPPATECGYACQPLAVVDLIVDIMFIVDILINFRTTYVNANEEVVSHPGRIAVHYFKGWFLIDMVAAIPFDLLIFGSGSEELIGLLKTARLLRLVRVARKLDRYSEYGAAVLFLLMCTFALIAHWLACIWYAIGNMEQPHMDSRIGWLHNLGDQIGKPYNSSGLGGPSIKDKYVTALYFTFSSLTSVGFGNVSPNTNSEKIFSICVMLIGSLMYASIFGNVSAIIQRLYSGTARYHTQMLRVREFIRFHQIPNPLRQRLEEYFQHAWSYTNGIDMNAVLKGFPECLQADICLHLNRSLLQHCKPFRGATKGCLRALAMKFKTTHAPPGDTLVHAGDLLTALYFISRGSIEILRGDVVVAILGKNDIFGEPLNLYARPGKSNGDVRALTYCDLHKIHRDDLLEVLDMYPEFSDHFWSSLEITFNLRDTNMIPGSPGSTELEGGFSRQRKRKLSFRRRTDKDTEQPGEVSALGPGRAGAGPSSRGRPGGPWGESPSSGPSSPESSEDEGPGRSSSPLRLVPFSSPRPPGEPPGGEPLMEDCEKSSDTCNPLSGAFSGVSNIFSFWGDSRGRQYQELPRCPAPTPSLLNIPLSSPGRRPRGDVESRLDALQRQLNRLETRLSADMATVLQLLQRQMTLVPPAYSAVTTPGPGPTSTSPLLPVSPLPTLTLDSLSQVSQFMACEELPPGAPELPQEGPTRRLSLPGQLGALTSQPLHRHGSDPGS

Row | Compound | cardiotoxicity (known) (hERG) | hERG inhibitory activity (known) (hERG) | concentrations at which cardiotoxic on the hMYO-hERG cell line (hMYO-hERG cells; hMYO-hERG cells, 48 hours treatment, FIG. 12A) | CC50 at 48 h [1] [µM] | cardiotoxicity on the hMYO-hERG cells (hMYO-hERG cells; at concentrations as high as 400 μM, compared to control vehicle at 400 μM)
1 | COc1cccc2c1C(=O)c1c(O)c3c(c(O)c1C2=O)C[C@@](O)(C(=O)CO)C[C@@H]3O[C@H]1C[C@H](N)[C@H](O)[C@H](C)O1 [doxorubicin] | long-term cardiotoxicity | only slight effects on hERG | above 50 μM | 42.3 | –
2 | C=C[C@H]1C[N@@]2CC[C@H]1C[C@@H]2[C@@H](O)c1ccnc2ccc(OC)cc12 [quinidine] | – | – | – | – | not significantly cardiotoxic
